# Source: patent publication US20260183295A1, “METHODS AND COMPOSITIONS FOR TREATING CANCER” (Onconova Therapeutics, Inc., priority 2022, published 2026)
# What was measured:
# Experiment in all cases: CETSA-MS, MDA-MB-231 intact cells
# Assay type in all cases: cell-based
# Conditions in all cases: 2 μM and 20 μM
# SYNE2 = biological target: T1, SYNE2 (Homo sapiens, UniProt Q8WXH0)
# T1 construct: endogenous in cells; host or cells: MDA-MB-231
# Procedure: (§1) TNBC MDA-MB-231 cells were grown at 37° C. in 5% CO2 and suspended in warm media and split into 4 equal volumes. […] Cells were incubated and then pelleted. Following pelleting, the cells were washed, resuspended, and heated in a thermal gradient. Following heating, the samples were flash frozen and lysed in lysis buffer, agitated by vortex, and sonicated prior to centrifugation. The supernatant was collected and denaturation buffer added. Cold acetone was then added to the cell samples, and protein collected by centrifugation. Pellets were then washed twice with cold acetone and the washed pellets prior to labeling.
# (§2) The intact cell protein samples and lysate protein samples were then digested and labeled for mass spectrometry analysis according to the manufacturer's recommended protocols. Digested and labeled protein samples were analyzed by mass spectrometry proteomic analysis and the resulting protein targets were analyzed and plotted.
# LOXL2 = biological target: T2, LOXL2 (Homo sapiens, UniProt Q9Y4K0)
# T2 construct: endogenous in cells; host or cells: MDA-MB-231
# Procedure: as §1, §2
# PIK3R4 = biological target: T3, PIK3R4 (Homo sapiens, UniProt Q99570)
# T3 construct: endogenous in cells; host or cells: MDA-MB-231
# Procedure: as §1, §2
# RIPK 1 = biological target: T4, RIPK 1 (Homo sapiens, UniProt Q13546)
# T4 construct: endogenous in cells; host or cells: MDA-MB-231
# Procedure: as §1, §2
# STK3 = biological target: T5, STK3 (Homo sapiens, UniProt Q13188)
# T5 construct: endogenous in cells; host or cells: MDA-MB-231
# Procedure: as §1, §2
# EIF4G1 = biological target: T6, EIF4G1 (Homo sapiens, UniProt Q04637)
# T6 construct: endogenous in cells; host or cells: MDA-MB-231
# Procedure: as §1, §2
# ANP32B = biological target: T7, ANP32B (Homo sapiens, UniProt Q92688)
# T7 construct: endogenous in cells; host or cells: MDA-MB-231
# T7 sequence (Q92688 whole entry): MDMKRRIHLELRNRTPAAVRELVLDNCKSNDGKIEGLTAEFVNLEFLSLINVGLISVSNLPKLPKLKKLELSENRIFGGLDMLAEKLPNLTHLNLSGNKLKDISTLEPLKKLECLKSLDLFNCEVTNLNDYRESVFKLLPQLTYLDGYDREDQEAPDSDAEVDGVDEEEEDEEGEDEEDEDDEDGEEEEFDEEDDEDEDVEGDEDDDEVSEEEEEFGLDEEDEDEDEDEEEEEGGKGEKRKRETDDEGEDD
# Procedure: as §1, §2
# PIP4K2A = biological target: T8, PIP4K2A (Homo sapiens, UniProt P48426)
# T8 construct: endogenous in cells; host or cells: MDA-MB-231
# Procedure: as §1, §2
# TLE5 = biological target: T9, TLE5 (Homo sapiens, UniProt Q08117)
# T9 construct: endogenous in cells; host or cells: MDA-MB-231
# Procedure: as §1, §2
# FOXK1 = biological target: T10, FOXK1 (Homo sapiens, UniProt P85037)
# T10 construct: endogenous in cells; host or cells: MDA-MB-231
# Procedure: as §1, §2
# ACAA1 = biological target: T11, ACAA1 (Homo sapiens, UniProt P09110)
# T11 construct: endogenous in cells; host or cells: MDA-MB-231
# Procedure: as §1, §2
# ELAVL1 = biological target: T12, ELAVL1 (Homo sapiens, UniProt Q15717)
# T12 construct: 148 targets unique to Compound 1 in MDA-MB-231 intact cells; endogenous in cells; host or cells: MDA-MB-231
# Procedure: as §1, §2
# CDKN1A = biological target: T13, CDKN1A (Homo sapiens, UniProt P38936)
# T13 construct: endogenous in cells; host or cells: MDA-MB-231
# Procedure: as §1, §2
# LTBP2 = biological target: T14, LTBP2 (Homo sapiens, UniProt Q14767)
# T14 construct: endogenous in cells; host or cells: MDA-MB-231
# Procedure: as §1, §2
# SHCBP1 = biological target: T15, SHCBP1 (Homo sapiens, UniProt Q8NEM2)
# T15 construct: endogenous in cells; host or cells: MDA-MB-231
# Procedure: as §1, §2
# RRAS2 = biological target: T16, RRAS2 (Homo sapiens, UniProt P62070)
# T16 construct: endogenous in cells; host or cells: MDA-MB-231
# Procedure: as §1, §2
# PIP4K2B = biological target: T17, PIP4K2B (Homo sapiens, UniProt P78356)
# T17 construct: endogenous in cells; host or cells: MDA-MB-231
# T17 sequence (P78356 whole entry): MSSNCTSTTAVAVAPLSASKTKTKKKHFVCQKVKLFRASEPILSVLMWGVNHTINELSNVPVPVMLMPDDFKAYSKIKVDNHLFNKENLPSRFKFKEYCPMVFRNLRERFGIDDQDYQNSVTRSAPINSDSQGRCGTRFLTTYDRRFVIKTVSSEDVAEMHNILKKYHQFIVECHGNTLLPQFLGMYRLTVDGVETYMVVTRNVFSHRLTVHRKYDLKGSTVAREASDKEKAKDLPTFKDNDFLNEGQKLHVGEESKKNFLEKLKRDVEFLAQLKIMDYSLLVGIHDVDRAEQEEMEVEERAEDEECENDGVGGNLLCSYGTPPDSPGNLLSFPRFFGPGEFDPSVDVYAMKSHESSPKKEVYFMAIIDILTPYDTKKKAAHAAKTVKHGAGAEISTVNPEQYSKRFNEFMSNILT
# Procedure: as §1, §2
# CHEK1 = biological target: T18, CHEK1 (Homo sapiens, UniProt O14757)
# T18 construct: endogenous in cells; host or cells: MDA-MB-231
# T18 sequence (O14757 1-476): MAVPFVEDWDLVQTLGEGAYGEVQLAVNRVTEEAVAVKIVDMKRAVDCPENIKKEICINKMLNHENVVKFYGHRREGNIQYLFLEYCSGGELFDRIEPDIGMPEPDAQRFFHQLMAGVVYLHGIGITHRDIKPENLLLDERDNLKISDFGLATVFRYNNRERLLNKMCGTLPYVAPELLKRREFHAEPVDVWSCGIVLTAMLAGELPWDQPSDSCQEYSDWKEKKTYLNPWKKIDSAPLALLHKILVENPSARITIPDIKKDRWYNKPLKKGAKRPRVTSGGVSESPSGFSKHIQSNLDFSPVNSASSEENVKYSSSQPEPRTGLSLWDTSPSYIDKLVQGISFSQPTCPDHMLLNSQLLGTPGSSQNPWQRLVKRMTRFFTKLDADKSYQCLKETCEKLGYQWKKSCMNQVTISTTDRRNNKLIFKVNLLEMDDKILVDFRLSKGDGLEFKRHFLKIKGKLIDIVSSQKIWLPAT
# Procedure: as §1, §2
# RBM34 = biological target: T19, RBM34 (Homo sapiens, UniProt P42696)
# T19 construct: endogenous in cells; host or cells: MDA-MB-231
# T19 sequence (P42696 whole entry): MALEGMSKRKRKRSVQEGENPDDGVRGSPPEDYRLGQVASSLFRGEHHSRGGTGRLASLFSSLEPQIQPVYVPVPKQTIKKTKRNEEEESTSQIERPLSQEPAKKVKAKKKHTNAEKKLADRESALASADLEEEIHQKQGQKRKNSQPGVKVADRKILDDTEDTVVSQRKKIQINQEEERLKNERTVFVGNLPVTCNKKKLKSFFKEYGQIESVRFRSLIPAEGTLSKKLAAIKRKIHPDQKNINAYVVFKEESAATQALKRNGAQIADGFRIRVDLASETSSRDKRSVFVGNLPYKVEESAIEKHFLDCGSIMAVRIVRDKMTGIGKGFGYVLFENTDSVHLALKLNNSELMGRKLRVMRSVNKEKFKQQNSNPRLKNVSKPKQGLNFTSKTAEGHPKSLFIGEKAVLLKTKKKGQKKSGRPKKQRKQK
# Procedure: as §1, §2
# IFT52 = biological target: T20, IFT52 (Homo sapiens, UniProt Q9Y366)
# T20 construct: endogenous in cells; host or cells: MDA-MB-231
# Procedure: as §1, §2
# AAK1 = biological target: T21, AAK1 (Homo sapiens, UniProt Q2M2I8)
# T21 construct: endogenous in cells; host or cells: MDA-MB-231
# T21 sequence (Q2M2I8 whole entry): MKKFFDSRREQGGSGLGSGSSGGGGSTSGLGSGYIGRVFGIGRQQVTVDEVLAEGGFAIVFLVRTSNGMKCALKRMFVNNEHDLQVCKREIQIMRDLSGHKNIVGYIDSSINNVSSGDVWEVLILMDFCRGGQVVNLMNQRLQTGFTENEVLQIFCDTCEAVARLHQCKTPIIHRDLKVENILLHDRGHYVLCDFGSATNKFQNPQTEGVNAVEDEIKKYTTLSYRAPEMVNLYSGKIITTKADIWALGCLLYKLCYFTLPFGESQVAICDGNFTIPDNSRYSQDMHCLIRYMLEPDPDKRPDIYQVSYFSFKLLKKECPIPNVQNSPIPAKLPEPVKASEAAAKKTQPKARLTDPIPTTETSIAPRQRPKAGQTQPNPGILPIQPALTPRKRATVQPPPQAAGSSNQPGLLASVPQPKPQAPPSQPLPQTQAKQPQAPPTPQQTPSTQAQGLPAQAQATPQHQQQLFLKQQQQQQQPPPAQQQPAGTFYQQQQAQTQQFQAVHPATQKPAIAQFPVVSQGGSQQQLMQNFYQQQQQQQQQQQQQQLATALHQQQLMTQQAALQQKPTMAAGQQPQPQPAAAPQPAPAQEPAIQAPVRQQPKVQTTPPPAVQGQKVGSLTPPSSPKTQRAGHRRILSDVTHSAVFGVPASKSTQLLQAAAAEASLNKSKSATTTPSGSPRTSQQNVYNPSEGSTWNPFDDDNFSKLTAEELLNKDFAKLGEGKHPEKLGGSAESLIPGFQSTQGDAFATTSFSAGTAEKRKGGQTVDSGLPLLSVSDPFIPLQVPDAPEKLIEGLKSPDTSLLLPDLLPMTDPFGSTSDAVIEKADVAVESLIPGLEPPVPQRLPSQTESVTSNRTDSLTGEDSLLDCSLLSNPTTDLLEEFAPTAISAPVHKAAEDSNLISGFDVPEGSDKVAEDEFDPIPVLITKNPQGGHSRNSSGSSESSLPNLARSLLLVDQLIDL
# Procedure: as §1, §2
# CSNK2A2 = biological target: T22, CSNK2A2 (Homo sapiens, UniProt P19784)
# T22 construct: 148 targets unique to Compound 1 in MDA-MB-231 intact cells; endogenous in cells; host or cells: MDA-MB-231
# Procedure: as §1, §2
# AHCTF1 = biological target: T23, AHCTF1 (Homo sapiens, UniProt Q8WYP5)
# T23 construct: endogenous in cells; host or cells: MDA-MB-231
# T23 sequence (Q8WYP5 whole entry): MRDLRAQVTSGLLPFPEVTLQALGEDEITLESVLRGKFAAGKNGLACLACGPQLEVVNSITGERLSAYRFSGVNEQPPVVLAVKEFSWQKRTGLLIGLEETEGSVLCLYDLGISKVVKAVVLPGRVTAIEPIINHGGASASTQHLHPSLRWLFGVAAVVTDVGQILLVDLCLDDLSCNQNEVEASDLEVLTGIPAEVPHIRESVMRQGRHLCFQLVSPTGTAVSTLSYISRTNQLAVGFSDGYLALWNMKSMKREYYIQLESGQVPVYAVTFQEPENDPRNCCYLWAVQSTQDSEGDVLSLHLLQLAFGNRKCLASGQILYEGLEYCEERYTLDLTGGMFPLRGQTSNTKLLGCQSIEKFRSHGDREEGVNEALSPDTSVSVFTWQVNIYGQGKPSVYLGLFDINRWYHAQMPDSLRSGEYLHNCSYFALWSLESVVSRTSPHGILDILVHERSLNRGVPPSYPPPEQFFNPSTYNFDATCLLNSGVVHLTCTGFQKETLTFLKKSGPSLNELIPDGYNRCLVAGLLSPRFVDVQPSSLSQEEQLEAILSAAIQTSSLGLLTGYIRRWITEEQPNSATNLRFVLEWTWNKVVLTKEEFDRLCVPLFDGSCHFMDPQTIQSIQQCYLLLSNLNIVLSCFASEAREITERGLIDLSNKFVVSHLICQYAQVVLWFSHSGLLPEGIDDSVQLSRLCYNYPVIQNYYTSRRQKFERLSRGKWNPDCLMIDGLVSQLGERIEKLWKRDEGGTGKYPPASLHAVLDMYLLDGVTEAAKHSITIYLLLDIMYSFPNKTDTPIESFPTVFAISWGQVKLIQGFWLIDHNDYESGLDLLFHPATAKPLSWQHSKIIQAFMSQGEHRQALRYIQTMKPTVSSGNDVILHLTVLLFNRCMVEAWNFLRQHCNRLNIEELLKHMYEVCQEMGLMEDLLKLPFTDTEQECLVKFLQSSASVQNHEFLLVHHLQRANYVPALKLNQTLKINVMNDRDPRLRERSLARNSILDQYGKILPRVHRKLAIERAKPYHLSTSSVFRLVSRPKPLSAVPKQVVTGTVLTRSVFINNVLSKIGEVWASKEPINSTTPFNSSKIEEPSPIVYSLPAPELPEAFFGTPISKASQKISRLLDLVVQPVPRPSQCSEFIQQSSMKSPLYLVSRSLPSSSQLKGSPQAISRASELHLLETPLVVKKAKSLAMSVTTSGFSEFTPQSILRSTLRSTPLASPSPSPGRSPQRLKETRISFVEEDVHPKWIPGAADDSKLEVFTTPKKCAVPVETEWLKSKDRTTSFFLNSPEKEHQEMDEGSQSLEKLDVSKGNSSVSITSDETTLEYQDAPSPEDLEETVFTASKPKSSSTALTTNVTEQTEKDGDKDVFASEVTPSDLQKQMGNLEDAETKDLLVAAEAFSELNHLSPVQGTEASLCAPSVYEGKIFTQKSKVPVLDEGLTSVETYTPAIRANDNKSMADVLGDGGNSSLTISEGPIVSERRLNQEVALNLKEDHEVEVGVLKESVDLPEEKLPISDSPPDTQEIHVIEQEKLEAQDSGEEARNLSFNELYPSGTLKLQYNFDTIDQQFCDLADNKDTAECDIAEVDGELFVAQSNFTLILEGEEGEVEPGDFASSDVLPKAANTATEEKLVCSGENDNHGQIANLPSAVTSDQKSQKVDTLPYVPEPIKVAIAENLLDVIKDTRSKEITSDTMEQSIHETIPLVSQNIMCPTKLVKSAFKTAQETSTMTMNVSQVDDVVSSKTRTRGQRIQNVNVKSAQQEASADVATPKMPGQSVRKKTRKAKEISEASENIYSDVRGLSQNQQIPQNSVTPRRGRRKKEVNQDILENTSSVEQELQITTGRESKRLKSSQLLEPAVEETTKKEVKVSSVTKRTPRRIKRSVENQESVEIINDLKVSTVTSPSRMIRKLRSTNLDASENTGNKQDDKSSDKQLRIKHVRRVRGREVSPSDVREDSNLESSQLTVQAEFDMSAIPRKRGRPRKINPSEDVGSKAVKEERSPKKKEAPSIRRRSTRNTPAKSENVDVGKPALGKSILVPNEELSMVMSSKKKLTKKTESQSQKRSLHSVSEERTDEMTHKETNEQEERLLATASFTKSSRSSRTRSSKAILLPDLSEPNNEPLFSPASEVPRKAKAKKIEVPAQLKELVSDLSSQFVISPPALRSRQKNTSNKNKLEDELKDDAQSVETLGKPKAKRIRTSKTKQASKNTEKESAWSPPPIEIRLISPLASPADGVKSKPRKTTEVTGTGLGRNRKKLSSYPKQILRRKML
# Procedure: as §1, §2
# NRP1 = biological target: T24, NRP1 (Homo sapiens, UniProt O14786)
# T24 construct: endogenous in cells; host or cells: MDA-MB-231
# Procedure: as §1, §2
# LAMTOR2 = biological target: T25, LAMTOR2 (Homo sapiens, UniProt Q9Y2Q5)
# T25 construct: endogenous in cells; host or cells: MDA-MB-231
# T25 sequence (Q9Y2Q5 whole entry): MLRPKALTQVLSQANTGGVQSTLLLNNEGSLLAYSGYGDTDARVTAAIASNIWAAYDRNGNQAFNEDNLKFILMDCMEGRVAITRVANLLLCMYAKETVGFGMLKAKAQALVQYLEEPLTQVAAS
# Procedure: as §1, §2
# SCAF1 = biological target: T26, SCAF1 (Homo sapiens, UniProt Q9H7N4)
# T26 construct: endogenous in cells; host or cells: MDA-MB-231
# Procedure: as §1, §2
# AP2A1 = biological target: T27, AP2A1 (Homo sapiens, UniProt O95782)
# T27 construct: endogenous in cells; host or cells: MDA-MB-231
# Procedure: as §1, §2
# CRAT = biological target: T28, CRAT (Homo sapiens, UniProt P43155)
# T28 construct: 148 targets unique to Compound 1 in MDA-MB-231 intact cells; endogenous in cells; host or cells: MDA-MB-231
# T28 sequence (P43155 whole entry): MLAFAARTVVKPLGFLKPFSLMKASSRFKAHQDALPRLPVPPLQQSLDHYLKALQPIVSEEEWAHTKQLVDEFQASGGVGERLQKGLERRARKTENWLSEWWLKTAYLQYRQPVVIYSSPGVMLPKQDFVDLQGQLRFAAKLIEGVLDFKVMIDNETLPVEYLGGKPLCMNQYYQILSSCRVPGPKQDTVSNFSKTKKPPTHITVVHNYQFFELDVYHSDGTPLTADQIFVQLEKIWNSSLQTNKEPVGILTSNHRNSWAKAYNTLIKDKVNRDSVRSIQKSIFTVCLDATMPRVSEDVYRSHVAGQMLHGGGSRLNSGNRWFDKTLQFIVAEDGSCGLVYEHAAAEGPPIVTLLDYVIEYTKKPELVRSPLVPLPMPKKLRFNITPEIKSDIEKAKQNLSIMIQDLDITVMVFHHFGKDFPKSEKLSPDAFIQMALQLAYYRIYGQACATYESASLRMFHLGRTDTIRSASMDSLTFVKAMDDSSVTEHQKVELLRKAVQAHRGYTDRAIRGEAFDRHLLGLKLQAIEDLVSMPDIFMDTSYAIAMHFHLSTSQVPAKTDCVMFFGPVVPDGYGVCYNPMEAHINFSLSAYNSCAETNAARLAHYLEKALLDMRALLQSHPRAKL
# Procedure: as §1, §2
# FOS = biological target: T29, FOS (Homo sapiens, UniProt P01100)
# T29 construct: endogenous in cells; host or cells: MDA-MB-231
# Procedure: as §1, §2
# PRPF4B = biological target: T30, PRPF4B (Homo sapiens, UniProt Q13523)
# T30 construct: endogenous in cells; host or cells: MDA-MB-231
# Procedure: as §1, §2
smiles,measurement,setting,value
"CN1CCN(c2ccc(Nc3ncc4cc(C#N)c(=O)n(C5CCCC5)c4n3)cc2)CC1 [Compound 1, 8-cyclopentyl-2-((4-(4-methylpiperazin-1-yl)phenyl)amino)-7-oxo-7,8-dihydropyrido[2,3-d]pyrimidine-6-carbonitrile]",Group (CETSA-MS thermal shift),SYNE2,Stabilization
same,Group (CETSA-MS thermal shift),LOXL2,Stabilization
same,Group (CETSA-MS thermal shift),PIK3R4,Stabilization
same,Group (CETSA-MS thermal shift),RIPK 1,Stabilization
same,Group (CETSA-MS thermal shift),STK3,Destabilization
same,Group (CETSA-MS thermal shift),EIF4G1,Destabilization
same,Group (CETSA-MS thermal shift),ANP32B,Destabilization
same,Group (CETSA-MS thermal shift),PIP4K2A,Stabilization
same,Group (CETSA-MS thermal shift),TLE5,Destabilization
same,Group (CETSA-MS thermal shift),FOXK1,Destabilization
same,Group (CETSA-MS thermal shift),ACAA1,Destabilization
same,Group (CETSA-MS thermal shift),ELAVL1,Stabilization
same,Group (CETSA-MS thermal shift),CDKN1A,Destabilization
same,Group (CETSA-MS thermal shift),LTBP2,Stabilization
same,Group (CETSA-MS thermal shift),SHCBP1,Destabilization
same,Group (CETSA-MS thermal shift),RRAS2,Stabilization
same,Group (CETSA-MS thermal shift),PIP4K2B,Stabilization
same,Group (CETSA-MS thermal shift),CHEK1,Destabilization
same,Group (CETSA-MS thermal shift),RBM34,Stabilization
same,Group (CETSA-MS thermal shift),IFT52,Stabilization
same,Group (CETSA-MS thermal shift),AAK1,Stabilization
same,Group (CETSA-MS thermal shift),CSNK2A2,Stabilization
same,Group (CETSA-MS thermal shift),AHCTF1,Stabilization
same,Group (CETSA-MS thermal shift),NRP1,Stabilization
same,Group (CETSA-MS thermal shift),LAMTOR2,Stabilization
same,Group (CETSA-MS thermal shift),SCAF1,Stabilization
same,Group (CETSA-MS thermal shift),AP2A1,Destabilization
same,Group (CETSA-MS thermal shift),CRAT,Stabilization
same,Group (CETSA-MS thermal shift),FOS,Destabilization
same,Group (CETSA-MS thermal shift),PRPF4B,Stabilization
